# Values quoted from earlier work, collected in patent JP2007126392A, “タンパク質のリフォールディング剤” (Sanyo Chemical Industries Ltd, priority 2005, dated 2007).
# Settings: first acid dissociation constant (pKa1) where several protons dissociate
smiles,measurement,value
O[Si](O)(O)O [ケイ酸],pKa,9.86
